{"source": "patent US10184933B2", "about": "“Compositions, systems and methods for gene expression noise drug screening and uses thereof” (priority 2013, dated 2019)", "key": {"latent HIV-1": {"tested_on": "latent HIV-1", "conditions": "Bocklandt et al., 2003; cited from earlier work"}, "HIV-1 LTR promoter [1]": {"tested_on": "HIV-1 LTR promoter", "type": "cell-based", "conditions": "FIG. 6D"}, "HIV-1 LTR promoter [2]": {"tested_on": "HIV-1 LTR promoter", "conditions": "shotgun imaging approach, Boehm et al., 2013; cited from earlier work"}, "HIV-1 LTR promoter [3]": {"tested_on": "HIV-1 LTR promoter", "experiment": "Two-reporter system (LTR-d2GFP and LTR-mCherry) noise measurement", "type": "cell-based", "conditions": "FIG. 6E", "experimental": "Without being bound by theory, a destabilized reporter is required to observe transcriptional noise with shorter time scales. GFP noise magnitude (quantified by the variance over the mean fluorescence squared, CV^2) and mean fluorescence were measured by high-throughput flow cytometry 24 hours post 10 uM drug exposure. To control for extrinsic variability in gene expression due to cell volume and state a conservative gating on the population forward versus side scatter was applied (See General Methods). A second LTR driving a long-lived mCherry reporter was integrated and screened alongside the destabilized reporter drug target to control for fluctuations in global resources and post-transcriptional noise sources (FIG. 6E).\nTo distinguish between compounds that primarily target transcription versus post-transcriptional processes and global resources (extrinsic noise) a second reporter of the LTR promoter driving a stable mCherry gene was included in the same targeted cell population used in the drug noise screen (FIG. 6E). The stable reporter averages out and is unaffected by fluctuations due to episodic transcription. Theory predicts that the destabilized d2GFP reporter can detect transcriptional bursting noise contributions (γp>>kon,koff, where γp is the fluorescent reporter degradation rate) while the two reporters together will move their noise magnitudes to changes in non-transcriptional noise sources. Filtering out non-transcriptional noise signatures of VM hits increases the probability for synergistic reactivation of latency. Noise from the two reporters was compared using the same processing as the LTR-d2GFP. The LTR-mCherry ΔCV^2 of the 85 selected VMs primarily land along the ΔCV^2 d2GFP axis. […]. Of these 25 compounds 15 were identified as modifiers of cell cycle, ATP, inflammation, post-translational modifications, and translation.\nIn addition to the GFP reporter in the LTR-d2GFP cell line, an LTR driving a long half-life mCherry reporter was present in the cell line. […] To remove compounds that altered CV^2 post transcriptionally, compounds that affected the CV^2 long-lived red reporter while conserving its mean mCherry level were removed. This method continues development of the original and decade-old 2-reporter system for intrinsic versus extrinsic noise measurements in bacteria (Elowitz et al., (2002) Science 297:1183-1186)."}, "[4]": {"tested_on": "latent HIV-1 in JLat 8.6 cells", "type": "cell-based"}, "[5]": {"conditions": ">500 nM for more than 2 days; Williams et al., 2004; cited from earlier work"}, "[6]": {"tested_on": "latent HIV-1 in JLat 9.2 cells", "experiment": "HIV-1 latency reactivation in JLat 9.2 cells", "type": "cell-based", "description": "Jurkat cells were cultured in RPMI 1640 supplemented with 10% FBS and 1% penicillin-streptomycin. JLat 6.3, JLat 8.6, and JLat 9.2 cells are Jurkat T cell lines containing integrated but transcriptionally latent HIV-1 proviruses.\nDrug treatments were performed for 24 hours at 10 uM final concentration in 96-well plates. Compounds were automatically added into 200 μl cultures at the final concentration of 0.1% DMSO. […] Plates were kept in the incubator until measurement and each well was automatically mixed before samples were analyzed. 5×10^4 of all live cells that passed a specific forward scatter (FSC)—side scatter (SSC) gate were collected from each well for noise magnitude measurements from which a conservative gating was applied for about 3×10^3 cells of similar FSC vs SSC to reduce extrinsic noise contributions primarily due to differences in cell volume and state. Each 96-well plate included a column of untreated control cells, cells treated with TNFα (positive control) and one well of non-′ fluorescent naïve Jurkat cells. For HIV-1 reactivation experiments 1×10^4 live cells were collected."}, "[7]": {"tested_on": "latent HIV-1 in JLat 15.4", "experiment": "HIV-1 latency reactivation in JLat 15.4 cells", "type": "cell-based"}, "[8]": {"tested_on": "latent HIV-1 in primary T-cells", "type": "cell-based", "conditions": "primary T-cell model", "experimental": "FIG. 18A schematically depicts a primary T-cell model of HIV-1 latency 48 h after reactivation with PMA or a subset of noise enhancers (% reactivation percentage is calculated relative to maximal reactivation potential). […] The horizontal line represents the mean calculated Bliss Independence Score (C. I. Bliss, Ann. Appl. Biol. 26:585-615 (1939)), a measure for strict additivity for all of the compounds. FIG. 18B schematically depicts stochastic simulations of noise suppression, which reduces noise without altering the mean expression level but limits reactivation induced by an activator. […] Details are described, e.g., in Example 10."}, "[9]": {"conditions": "known transcriptional modulators applied to the isoclone target"}, "[10]": {"conditions": "known transcriptional activators"}}, "note": "“Also recorded” adds a separate entry of the source. Counter-ions that a name gives are not always drawn. Like-named read-outs stand apart in the source and are kept apart here."}
{"smiles": "CC1=C[C@H]2[C@@]3(O)[C@H](C)C[C@]4(OC(=O)Cc5ccccc5)C([C@@H]3C=C(CO)C[C@]2(O)C1=O)C4(C)C", "note": "(stereo partly shown) [DPP, 12-deoxyphorbol 13-phenylacetate]", "values": [{"measurement": "potency relative to prostratin", "setting": "latent HIV-1", "value": "20-40 fold"}]}
{"smiles": "Cc1sc2c(c1C)C(c1ccc(Cl)cc1)=N[C@@H](CC(=O)OC(C)(C)C)c1nnc(C)n1-2", "note": "[JQ1, t-Butyl-2-((6S)-4-(4-chlorophenyl)-2,3,9-trimethyl-6H-thieno[3,2-f][1,2,4]triazolo[4,3-a][1,4]diazepin-6-yl)acetate]", "values": [{"measurement": "variability in gene expression (noise magnitude)", "setting": "HIV-1 LTR promoter [1]; [9]", "value": "increase variability in gene expression; also recorded: variability enhancers"}, {"measurement": "noise magnitude across integration sites", "setting": "HIV-1 LTR promoter [2]", "value": "global increase in noise magnitude"}]}
{"smiles": "CC(=O)O[C@@]12C[C@@H](C)[C@@]3(O)[C@@H](C=C(CO)C[C@]4(O)C(=O)C(C)=C[C@@H]34)[C@@H]1C2(C)C", "note": "[Prostratin, 12-deoxyphorbol 13-acetate]", "values": [{"measurement": "burst frequency", "setting": "HIV-1 LTR promoter [1]; activator drugs", "value": "increase burst frequency"}, {"measurement": "mean expression level", "setting": "HIV-1 LTR promoter [1]; [9]", "value": "increase mean expression level"}, {"measurement": "variability in gene expression (noise magnitude)", "setting": "HIV-1 LTR promoter [1]; [9]", "value": "decrease noise magnitude"}, {"measurement": "variability in gene expression (noise magnitude)", "setting": "HIV-1 LTR promoter [1]; known transcriptional modulators applied to the isoclone target, listed as prostratin", "value": "decrease variability in gene expression"}, {"measurement": "d2GFP noise", "setting": "HIV-1 LTR promoter [3]; [10]", "value": "decrease both mCherry and d2GFP noise"}, {"measurement": "mCherry noise", "setting": "HIV-1 LTR promoter [3]; [10]", "value": "decrease both mCherry and d2GFP noise"}, {"measurement": "transcriptional burst frequency (decreasing noise in mCherry)", "setting": "HIV-1 LTR promoter [3]; transcriptional modifiers", "value": "increase transcriptional burst frequency"}, {"measurement": "reactivation by activator alone", "setting": "[4]; Prostratin alone, 48 hr", "value": 6, "unit": "%"}, {"measurement": "toxicity", "setting": "[5]", "value": "substantial growth arrest and cell death"}]}
{"smiles": "COC(=O)C1=C(C)NC(C)=C(C(=O)OCCN2CCN(C(c3ccccc3)c3ccccc3)CC2)C1c1cccc([N+](=O)[O-])c1", "note": "(stereo not shown) [VS1, manidipine hydrochloride]", "values": [{"measurement": "decrease of TNF-induced reactivation", "setting": "[4]; JLat 8.6", "value": "~40", "unit": "%"}, {"measurement": "decrease of TNFα-mediated reactivation", "setting": "[6]", "value": "about 40%"}, {"measurement": "decrease of TNF-induced reactivation", "setting": "[7]", "value": "~40", "unit": "%"}, {"measurement": "decrease of Prostratin-induced reactivation", "setting": "[8]", "value": "~50", "unit": "%"}]}
